From article PMC11944884, “Bioactive Secondary Metabolites of Two Chinese Edible Boletes, Phlebopus portentosus and Butyriboletus roseoflavus” (Molecules, 2025)
Read-outs that look alike come from different tables or passages of the source.

Assays:
[1] = test system: influenza virus B/Victoria strain; assay: microbe, parasite or virus in culture; format: cell-based
[2] = test system: A/H3N2 and B/Victoria strains; assay: microbe, parasite or virus in culture; format: cell-based; conditions: Influenza A virus, range over compounds 22 and 26 and both strains
influenza virus A/H3N2 = assay: microbe, parasite or virus in culture; format: cell-based, influenza virus A (H3N2 strain)
SH-SY5Y cells = assay: Neuroprotection against H2O2-induced neurotoxicity (MTT); format: cell-based
coxsackievirus B3 = assay: Anti-coxsackievirus assay (CPE / MTT) in Vero cells; format: cell-based
BEL7402 = assay: Cytotoxicity CCK-8 assay, BEL7402; format: cell-based; conditions: Homo sapiens, Bel-7402; BEL7402
PC-3 = assay: Cytotoxicity CCK-8 assay, PC-3; format: cell-based; conditions: Homo sapiens, PC-3
SGC7901 = assay: Cytotoxicity CCK-8 assay, SGC7901; format: cell-based; conditions: Homo sapiens, SGC-7901; SGC7901
Hela229 = assay: Cytotoxicity CCK-8 assay, Hela229; format: cell-based; conditions: Homo sapiens, HeLa 229; Hela229
[3] = test system: Hela229, SGC7901, PC-3, BEL7402, and MCF-7/ADR; assay: Cytotoxicity CCK-8 assay, small panel of human cancer cell lines (summary statements); format: cell-based; conditions: over the panel Hela229, SGC7901, PC-3, BEL7402, MCF-7/ADR, read-out: IC50
MCF-7/ADR = assay: Cytotoxicity CCK-8 assay, MCF-7/ADR; format: cell-based; conditions: Homo sapiens, NCI/ADR-RES
[4] = Influenza A virus, H3N2, MDCK, read-out: CPE inhibition
[5] = Homo sapiens, SH-SY5Y, read-out: Cell viability (% of control group)

## CC(C)[C@@H](C)/C=C/[C@@H](C)[C@H]1CC[C@H]2C3=C[C@@H](O)[C@@]4(O)C[C@@H](O)CC[C@]4(C)[C@H]3CC[C@]12C [Compound 22, cerevisterol]
[1]; MDCK
  EC50: 6.6 µM
  IC50: 6.6 µM
[1]; MDCK, read-out: CPE inhibition
  inhibition at 1.56 µM: 0%
  inhibition at 3.13 µM: 0%
  inhibition at 6.25 µM: 10%
  inhibition at 12.5 µM: 75%
  inhibition at 25 µM: 75%
[2]
  EC50: 3.6 to 9.6 µM
Influenza virus A/H3N2; Influenza A virus, H3N2, MDCK
  IC50: 9.6 µM
Influenza virus A/H3N2; [4]
  inhibition at 1.56 µM: 0%
  inhibition at 3.13 µM: 0%
  inhibition at 6.25 µM: 0%
  inhibition at 12.5 µM: 75%
  inhibition at 25 µM: 75%
Influenza virus A/H3N2; MDCK
  EC50: 9.6 µM

## NC(=O)c1ncn([C@@H]2O[C@H](CO)[C@@H](O)[C@H]2O)n1 [Ribavirin, reference compound]
[1]; B/Victoria strain, 3.13 μM, MDCK cells, read-out: CPE inhibition
  inhibition at 3.13 µM: 0%
[1]; B/Victoria strain, 6.25 μM, MDCK cells, read-out: CPE inhibition
  inhibition at 6.25 µM: 0%
[1]; B/Victoria strain, 12.5 μM, MDCK cells, read-out: CPE inhibition
  inhibition at 12.5 µM: 25%
[1]; B/Victoria strain, 25 μM, MDCK cells, read-out: CPE inhibition
  inhibition at 25 µM: 62.5%
[1]; B/Victoria strain, 50 μM, MDCK cells, read-out: CPE inhibition
  inhibition at 50 µM: 75%
[1]; B/Victoria strain, 100 μM, MDCK cells, read-out: CPE inhibition
  inhibition at 100 µM: 100%
[1]; B/Victoria strain, MDCK cells, Table S5, read-out: IC50
  IC50: 20.6 µM
[1]; influenza virus B (Victoria strain), MDCK cells, read-out: EC50
  EC50: 20.6 µM
Influenza virus A/H3N2; Influenza A virus, A/H3N2 strain, 3.13 μM, MDCK cells, read-out: CPE inhibition
  inhibition at 3.13 µM: 3.3%
Influenza virus A/H3N2; Influenza A virus, A/H3N2 strain, 6.25 μM, MDCK cells, read-out: CPE inhibition
  inhibition at 6.25 µM: 0%
Influenza virus A/H3N2; Influenza A virus, A/H3N2 strain, 12.5 μM, MDCK cells, read-out: CPE inhibition
  inhibition at 12.5 µM: 10%
Influenza virus A/H3N2; Influenza A virus, A/H3N2 strain, 25 μM, MDCK cells, read-out: CPE inhibition
  inhibition at 25 µM: 50.5%
Influenza virus A/H3N2; Influenza A virus, A/H3N2 strain, 50 μM, MDCK cells, read-out: CPE inhibition
  inhibition at 50 µM: 75%
Influenza virus A/H3N2; Influenza A virus, A/H3N2 strain, 100 μM, MDCK cells, read-out: CPE inhibition
  inhibition at 100 µM: 100%
Influenza virus A/H3N2; Influenza A virus, A/H3N2 strain, MDCK cells, Table S5, read-out: IC50
  IC50: 28.3 µM
Influenza virus A/H3N2; influenza virus A (H3N2 strain), MDCK cells, read-out: EC50
  EC50: 28.3 µM

## O=C1O/C(=C(/C(=O)O)c2ccc(O)c(O)c2)C(O)=C1c1ccc(O)c(O)c1 [Compound 19, variegatic acid]
SH-SY5Y cells; [5]
  viability at 2.5 µM: 56.4 ± 1.79%
  viability at 5 µM: 59.3 ± 2.94%
  viability at 10 µM: 63.7 ± 2.8%
  viability at 20 µM: 71.5%
  viability at 40 µM: 81.9%

## CC(C)[C@@H](C)/C=C/[C@@H](C)[C@H]1CC[C@H]2C3=C(CC[C@]12C)[C@@]1(C)CC[C@H](O)C[C@@]12O[C@H]2C3=O [Compound 29, (22E,24R)-5α,6α-epoxy-3β-hydroxy-ergosta-8,22-dien-7-one]
Coxsackievirus B3
  antiviral effect against coxsackievirus B3: moderate antiviral effect
Coxsackievirus B3; 100 μg/mL, CVB-infected Vero cells
  increased cell survival: 35.4%
Coxsackievirus B3; 100 μg/mL, microscope
  cytopathic morphology of Vero cells infected with coxsackievirus B3: reversed the cytopathic morphology

## CC(=O)N[C@@H](CS)C(=O)O [NAC, N-acetylcysteine, reference compound]
SH-SY5Y cells; 500 μM compound, 80 μM H2O2, mean ± SEM
  Cell viability (% of control group): 81.05%

## COc1cccc2c1C(=O)c1c(O)c3c(c(O)c1C2=O)C[C@@](O)(C(=O)CO)C[C@@H]3O[C@H]1C[C@H](N)[C@H](O)[C@H](C)O1 [Doxorubicin, reference compound]
BEL7402
  IC50: 1.59 µM
PC-3
  IC50: 1.78 µM
SGC7901
  IC50: 0.8 µM
Hela229
  IC50: 0.75 µM
[3]
  IC50: 0.75 to 35.2 µM
MCF-7/ADR
  IC50: 35.2 µM
MCF-7/ADR; 6.25 μM, 48 h, read-out: Cell proliferation inhibition (%)
  inhibition at 6.25 µM: 46.5%
MCF-7/ADR; 12.5 μM, 48 h, read-out: Cell proliferation inhibition (%)
  inhibition at 12.5 µM: 44.2%
MCF-7/ADR; 50 μM, 48 h, read-out: Cell proliferation inhibition (%)
  inhibition at 50 µM: 52.7%
MCF-7/ADR; 100 μM, 48 h, read-out: Cell proliferation inhibition (%)
  inhibition at 100 µM: 52.8%
